US20030190650A1 (priority 2000, published 2003)

System: primary human neutrophils
Experiment: Gliotoxin block of GM-CSF inhibition of neutrophil apoptosis (MTT)
Type: cell-based
Settings: 0.1 μg/ml with 5 U/ml GM-CSF
Method: Primary human neutrophils are isolated and purified from peripheral blood of normal healthy individuals. Neutrophils are resuspended in serum containing culture medium containing 5 U/ml of GM-CSF at a concentration of 2×10^6/ml. […] After the indicated time, 10 μl of MTT (5 mg/ml) are added to the cultures and incubated for a further 4 h at 37° C. before solubilisation of the purple coloured formazan with acidic isopropanol. Optical densities are read at 570 nm using a plate reader.

## CS[C@]1(CO)C(=O)N2[C@H]3C(=CC=C[C@@H]3O)C[C@@]2(SC)C(=O)N1C [methylgliotoxin, bis-Dethio-bis (Methylthio) Gliotoxin]
  effect on GM-CSF inhibition of neutrophil apoptosis: blocking effect is not seen
